What was measured:
[1] = tested on: PME defect of cps-6(tm3222) embryos; assay: PME microscopy assay in cps-6(tm3222) crosses; assay type: in vivo, C. elegans; conditions: 64-cell embryos, scored as in FIG. 1a (FIG. 6b); DMSO control average of 17 clusters
From the text: (§1) The numbers of MTR-stained paternal mitochondrial clusters were scored as in FIG. 1a. cps-6(tm3222) and lgg-1(bp523) alleles were used in the assays. Data are mean±s.e.m. n=20 embryos (b) and 15 embryos (c) in each experiment. **P<0.01; ***P<0.001; n.s., not significant, two-sided, unpaired t-test.
(§2) To investigate how these six compounds might affect PME, the present inventors performed chemical genetic analysis to analyze the PME pathways that might be affected by the compounds. The present inventors first examined whether they might affect the paternal PME pathway mediated by the mitochondrial endonuclease CPS-6, whose activity is inhibited by oxidation and protected by reducing agents.

[2] = tested on: PME defect of lgg-1(bp523) embryos (autophagy pathway); assay: PME microscopy assay in lgg-1(bp523) crosses; assay type: in vivo, C. elegans; conditions: FIG. 6c
From the text: as §1, §2

EndoG = conditions: stated in discussion, no test described; cited from earlier work
[3] = tested on: paternal mitochondrial elimination (PME) in C. elegans wild-type (N2) cross-fertilized embryos; assay: PME fluorescent microscopy assay (MTR-stained paternal mitochondrial clusters), N2 males x N2 hermaphrodites; assay type: in vivo; conditions: for effect on PME in the screen: compound 100 μM, 64-cell stage embryos (FIG. 1a)
Procedure: FIG. 1. […] The numbers of MTR-stained paternal mitochondrial clusters in 64-cell cross-fertilized embryos from mating of MTR-stained N2 males with N2 hermaphrodites in the presence of the indicated compounds (100 μM) were scored. n≥15 embryos for each compound. b, d-g, Quantification of MTR-stained paternal mitochondrial clusters in 64-cell stage embryos (b, d-f) or in embryos at the indicated stage (g) from the cross between MTR-stained N2 males and N2 hermaphrodites, in the presence of 0.25% ethanol (Mock) or 50 μM of the indicated compound. In each experiment, n>40 embryos (b,d,e), n=20 embryos (f), and n≥10 embryos (g) were scored, respectively. […] Data are mean±s.e.m. **P<0.01, ***P<0.001; n.s., not significant, two-sided, unpaired t-test.
FIG. 7. Effects of different dosages of resveratrol isomers on PME. a, b, The effects of different dosages of cis-resveratrol (a) and trans-resveratrol (b) on PME. The numbers of MTR-stained paternal mitochondrial clusters in 64-cell embryos (a) or 16-cell embryos (b) from mating of MTR-stained N2 males with N2 hermaphrodites in the presence of the indicated concentrations of resveratrol isomers were scored. […] N2 hermaphrodites and MTR-stained uaDf5/+ males were mated as indicated in the presence of 0.25% ethanol (Mock, d), 50 μM trans-resveratrol (e), or 50 μM cis-resveratrol (f). Males also carried smIs42, an integrated Psur-5sur-5::gfp transgene, which directs GFP expression in all somatic cells in most developmental stages, and was used to track cross progeny. A single cross-fertilized embryo or larva (MTR- or GFP-positive) at the indicated stage was analyzed by PCR. uaDf5/+ and N2 hermaphrodites were controls.
FIG. 12. […] Quantification of MTR-stained paternal mitochondrial clusters at the indicated embryonic stages from the cross between MTR-stained N2 males and N2 hermaphrodites, in the presence of 0.25% ethanol (Mock) or 50 μM of the indicated compound. In each experiment, n≥10 embryos embryos. Data are mean±s.e.m. **P<0.01, ***P<0.001; n.s., not significant, two-sided, unpaired t-test.
Following fertilization, paternal mitochondria are rapidly depolarized and damaged in fertilized eggs, which could generate and release reactive oxygen species (ROS) that affect PME and embryo development. We thus screened twelve small molecules derived from natural products that have been used as antioxidants for the potential activity in modulating PME (FIG. 6a), using a fluorescent microscopy assay. In this assay, C. elegans wild-type (N2) males prestained with Mitotracker Red (MTR), a mitochondrion-specific fluorescent dye, were mated with unstained N2 hermaphrodites in the presence of the compound of interest ([…]) and the cross-fertilized embryos were examined for the presence of MTR-stained paternal mitochondria or mitochondrial clusters.

CPS-6 = molecular target: T1, CPS-6 (Caenorhabditis elegans, UniProt Q95NM6); assay: plasmid DNA cleavage assay; assay type: biochemical, C. elegans; conditions: 20 μM
T1 construct: Recombinant CPS-6 protein was incubated with the supercoiled plasmid DNA substrate
T1 sequence (Q95NM6 1-308): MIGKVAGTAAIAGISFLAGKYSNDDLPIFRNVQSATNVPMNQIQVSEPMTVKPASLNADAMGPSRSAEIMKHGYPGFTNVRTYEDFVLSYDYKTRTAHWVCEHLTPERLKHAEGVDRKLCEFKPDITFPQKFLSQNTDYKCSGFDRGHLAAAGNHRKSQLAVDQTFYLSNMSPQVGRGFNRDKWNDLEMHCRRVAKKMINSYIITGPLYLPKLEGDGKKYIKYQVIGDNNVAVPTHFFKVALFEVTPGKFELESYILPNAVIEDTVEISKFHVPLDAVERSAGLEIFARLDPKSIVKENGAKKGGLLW
Procedure: FIG. 3. Resveratrol isomers target CPS-6 to affect PME. a, b, Both cis-resveratrol and trans-resveratrol act paternally to affect PME. The numbers of MTR-stained paternal mitochondrial clusters in embryos at 64-cell (a) or 16-cell (b) stage from the indicated crosses were scored. N2 males or hermaphrodites were pretreated with 0.25% ethanol (Mock), 50 μM cis-resveratrol (a), or 50 μM trans-resveratrol (b) as indicated before mating. c-g, Quantification of MTR-stained paternal mitochondrial clusters in 64-cell embryos from the indicated crosses treated with 0.25% ethanol (Mock), 50 μM cis-resveratrol, and 50 μM trans-resveratrol, respectively. Alleles used are lgg-1(bp523), cps-6(tm3222) and rad-23(tm2595). Data are mean s.e.m; n≥15 embryos (a) and n≥20 embryos (b, c-g) were scored in each experiment. ***P<0.001; n.s., not significant, two-sided, unpaired t-test. h, Resveratrol isomers enhance or inhibit the nuclease activity of CPS-6 in a plasmid DNA cleavage assay. 10 ng of CPS-6 were incubated with 0.25% ethanol (Mock), 20 μM cis-resveratrol, or 20 μM trans-resveratrol in dark at 4° C. for 1.5 hours, before 1 μg of the pPD49.78 plasmid DNA were added to the reactions. After further incubation at 30° C. for 1 hour, the reactions were resolved on a 1% agarose gel. Three different forms of plasmid DNA are indicated.
FIG. 11. Stabilized trans-resveratrol enhances the nuclease activity of CPS-6 in a plasmid DNA cleavage assay and is resistant to UV irradiation. 10 ng of CPS-6 were incubated with 0.25% ethanol (Mock), 20 μM locked trans-resveratrol with or without UV irradiation, 20 μM trans-resveratrol with or without UV irradiation, and 20 μM cis-resveratrol with or without UV irradiation, respectively, in dark at 4° C. for 1.5 hours, before 1 μg of the pPD49.78 plasmid DNA were added to the reactions. After further incubation at 30° C. for 1 hour, the reactions were resolved on a 1% agarose gel. Three different forms of plasmid DNA are indicated. Resveratrol isomers or derivative were subjected to UV irradiation for 3 hours.
Because resveratrol is an antioxidant and the endonuclease activity of CPS-6 is regulated by redox conditions both in vitro and in vivo, we investigated the possibility that resveratrol isomers could directly affect the nuclease activity of CPS-6 using a plasmid DNA cleavage assay. Recombinant CPS-6 protein was incubated with the supercoiled plasmid DNA substrate in the presence or absence of 20 μM trans-resveratrol or cis-resveratrol and the reactions were resolved by an agarose gel. […] Since the nuclease activity of CPS-6 is required for PME, these in vitro results are consistent with the in vivo observations that trans-resveratrol enhances and cis-resveratrol inhibits PME.

[4] = tested on: α-synuclein-induced dopaminergic neuronal death in baIn11 animals; assay: α-synuclein-based Parkinson's Disease model, DA neuronal death; assay type: in vivo, C. elegans; conditions: 50 μM, adult day 2 (FIG. 8c)
From the text: FIG. 8. […] In each experiment, 300 animals were scored to determine the percentage of animals losing at least one dopaminergic neuron in the head. Data are mean±s.e.m. *P<0.05; ***P<0.001, two-sided, unpaired t-test.
FIG. 13. […] In each experiment, 300 animals were scored to determine the percentage of animals losing at least one of the six dopaminergic neurons in the head. Data are mean±s.e.m. ****P<0.001, two-sided, unpaired t-test.
In addition to PME and apoptosis, EndoG was previously shown to play an important role in mediating dopaminergic (DA) neuronal death induced by expression of human α-synuclein, which is widely considered to be a major proponent of Parkinson's disease. However, the mechanism by which EndoG mediates α-synuclein-induced neurodegeneration is unclear. In a C. elegans α-synuclein-based Parkinson's Disease model, co-expression of GFP and human α-synuclein in C. elegans dopaminergic neurons under the control of the promoter of the dat-1 gene, which encodes a dopamine transporter, from an integrated transgene baIn11 (Pdat-1::gfp/Pdat-1::α-synuclein) caused DA neuronal death in 30% of adult baIn11 animals (FIG. 8a). The cps-6(tm3222) mutation blocked DA neuronal death in adult baIn11 animals (FIG. 8a), confirming that CPS-6 is important for α-synuclein-induced DA neuronal death.

| SMILES | effect on PME defect of cps-6(tm3222) embryos, screen compounds [1] | effect on PME in the screen [3] | further results |
| --- | --- | --- | --- |
| Oc1ccc(/C=C/c2cc(O)cc(O)c2)cc1 [resveratrol, 3,5,4′-trihydroxy-trans-stilbene] | did not affect the PME defect |  | enhancement of the PME defect in lgg-1 deficient embryos, screen compounds [2]: enhanced the PME defect; affinity of resveratrol to EndoG (EndoG): nanomolar affinity |
| C[n+]1ccc(-c2cc[n+](C)cc2)cc1 [paraquat, reference compound] |  | inhibited PME |  |
| COc1cc(/C=C/C(=O)CC(=O)/C=C/c2ccc(O)c(OC)c2)ccc1O [curcumin] | significantly increased the number of paternal mitochondrial clusters |  |  |
| CC1=C(/C=C/C(C)=C/C=C/C(C)=C/C=C/C=C(C)/C=C/C=C(C)/C=C/C2=C(C)C(=O)[C@@H](O)CC2(C)C)C(C)(C)C[C@H](O)C1=O [astaxanthin, reference compound] |  | did not inhibit PME |  |
| N[C@@H](CCC(=O)N[C@@H](CS)C(=O)NCC(=O)O)C(=O)O [glutathione, reference compound] |  | did not inhibit PME |  |
| O=c1cc(-c2ccc(O)cc2)oc2cc(O)cc(O)c12 [apigenin] | significantly increased the number of paternal mitochondrial clusters |  | enhancement of the PME defect in lgg-1 deficient embryos, screen compounds [2]: enhanced the PME defect |
| CC(CC(=O)C[C@@H](C)[C@H]1CC(=O)[C@@]2(C)C3=C(C(=O)C[C@]12C)[C@@]1(C)CC[C@H](O)C(C)(C)[C@@H]1C[C@@H]3O)C(=O)O (stereo partly shown) [ganoderic acid B] | significantly increased the number of paternal mitochondrial clusters |  | enhancement of the PME defect in lgg-1 deficient embryos, screen compounds [2]: enhanced the PME defect |
| O=c1c(O)c(-c2ccc(O)c(O)c2)oc2cc(O)cc(O)c12 [quercetin] | significantly increased the number of paternal mitochondrial clusters |  |  |
| Oc1cc(O)c2c(c1)O[C@H](c1ccc(O)c(O)c1)[C@@H](O)C2 [catechinic acid, reference compound] |  | did not inhibit PME |  |
| Oc1ccc(/N=C/c2cc(O)cc(O)c2)cc1 |  |  | dynamics of PME at different embryonic stages ([3]; 50 μM vs 0.25% ethanol mock (FIG. 1g, FIG. 12)): identical activity in promoting PME; effect on CPS-6 nuclease activity (CPS-6; 10 ng CPS-6, pPD49.78 plasmid DNA): similarly enhance the endonuclease activity of CPS-6 like trans-resveratrol; effect on CPS-6 nuclease activity after UV irradiation of the compound (CPS-6; compound UV irradiated for 3 hours (FIG. 11)): did not alter the activity; adult baIn11 animals with neurodegeneration (DA neuronal loss) [4]: 45% |
| O=c1cc(-c2ccccc2)oc2cc(O)c(O)c(O)c12 [baicalein] | significantly increased the number of paternal mitochondrial clusters |  | enhancement of the PME defect in lgg-1 deficient embryos, screen compounds [2]: not |
| Nc1nc2ncc(CNc3ccc(C(=O)N[C@@H](CCC(=O)O)C(=O)O)cc3)nc2c(=O)[nH]1 [folic acid, reference compound] |  | did not inhibit PME |  |
| O=C(OC[C@H]1O[C@@H](OC(=O)c2cc(O)c(O)c(OC(=O)c3cc(O)c(O)c(O)c3)c2)[C@H](OC(=O)c2cc(O)c(O)c(OC(=O)c3cc(O)c(O)c(O)c3)c2)[C@@H](OC(=O)c2cc(O)c(O)c(OC(=O)c3cc(O)c(O)c(O)c3)c2)[C@@H]1OC(=O)c1cc(O)c(O)c(OC(=O)c2cc(O)c(O)c(O)c2)c1)c1cc(O)c(O)c(OC(=O)c2cc(O)c(O)c(O)c2)c1 [tannic acid, reference compound] |  | did not inhibit PME |  |
| O=C1O[C@H]([C@@H](O)CO)C(O)=C1O [ascorbic acid, reference compound] |  | did not inhibit PME |  |
